Literature values in paper PMC7968864, “Theory of Allosteric Regulation in Hsp70 Molecular Chaperones” (QRB Discovery, 2020).

Tests used:
I483D DnaK = test system: I483D DnaK; parameters: method as in Wang et al., 2020; settings: fluorescein-labelled NR peptide 10 nM, fluorescence anisotropy, ref Wang et al., 2020
WT DnaK = settings: fluorescence anisotropy, ref Wang et al., 2020

Substance: NRLLLTG [fluorescein-labelled NR peptide]
- peptide binding in ADP (in words) (I483D DnaK): indistinguishable from that to WT when in ADP
- peptide binding in ATP versus ADP (in words) (WT DnaK): much reduced in the presence of ATP as compared to when with ADP
